{"source": "patent US10016515B2", "about": "“DMA, a bis-benzimidazole, confers radioprotection to the intestine via Akt/NFκB dual pathway activation” (Jawaharlal Nehru University, priority 2016, dated 2018)", "key": {"Balb/c mice": {"test_system": "Balb/c mice", "assay_type": "in vivo", "method": "Balb/c mice with or without DMA treatment were placed in a specially designed, well-ventilated acrylic container and subjected to whole-body irradiation at 5, 6, 8, 9 or 10 Gray (Gy) in a single fraction.\nThe mice were grouped as follows: Group 1, Sham control (normal saline treated); Group 2, radiation control (whole body exposure to 8 Gy); Group 3, treated with increasing doses (100, 150, 200, 450 and 600 mg/kg bw) of DMA 2 h prior to whole body exposure to 8 Gy and Group 4 treated with similar DMA doses only. Survival study was carried out for a period of 30 days and animals were routinely monitored for their body weight, food and water intake, radiation sickness symptoms and mortality to fix the highest effective dose of DMA against radiation induced toxicity.\nMice were treated with DMA (200 mg/kg bw) prior to whole body exposure to 5, 6, 8, 9 & 10 Gy. DRF was calculated ratio of LD50/30 mice treated with both DMA and radiation to the LD50/30 of mice treated with saline and radiation. Similarly survival with different route of administration of DMA was studied at 8 and 9 Gy TBI."}, "HEK293 cells": {"test_system": "HEK293 cells", "assay": "Cell-cycle analysis", "assay_type": "cell-based, human", "method": "The cell cycle analysis of Akt depleted HEK293 cells were done at 0, 1, 3, 6, 12, 18 and 24 h, washed twice with ice-cold PBS, and fixed in 70% ethanol. Cell pellets were stored at 4° C. for 24 h, and stained with 0.5 mL of propidium iodide (0.1% in 0.6% Triton X-100 in PBS) and 0.5 mL of RNase (2 mg/mL) for 30 min in dark. Samples were then analysed on a FACS Calibur flow-cytometer (Becton Dickinson)."}}, "note": "Where two headings read alike, the source gives them in different places.", "data": [{"smiles": "COc1ccc(-c2nc3cc(-c4nc5cc(N6CCN(C)CC6)ccc5[nH]4)ccc3[nH]2)cc1OC", "note": "[DMA, 5-(4-methylpiperazin-1-yl)-2-[2′-(3,4-dimethoxyphenyl)-5′-benzimidazolyl]benzimidazole]", "values": [{"measurement": "Survival / radioprotection", "setting": "Balb/c mice; 50 mg/kg i.v. 2 h prior to 8Gy TBI", "value": 100, "unit": "%"}, {"measurement": "Survival", "setting": "Balb/c mice; 50 mg/kg i.v., 9Gy TBI", "value": 50, "unit": "%"}, {"measurement": "Radioprotection", "setting": "Balb/c mice; 50 mg/kg s.c. 3 h prior to 8Gy TBI", "value": 20, "unit": "%"}, {"measurement": "30-days survival rate", "setting": "Balb/c mice; 100 mg/kg oral before 8Gy TBI", "value": 54, "unit": "%"}, {"measurement": "Survival", "setting": "Balb/c mice; 125 mg/kg i.p. 2 h before 8Gy", "value": 55, "unit": "%"}, {"measurement": "30-days survival rate", "setting": "Balb/c mice; 150 mg/kg oral before 8Gy TBI", "value": 70, "unit": "%"}, {"measurement": "30-days survival rate", "setting": "Balb/c mice; 200 mg/kg oral before 8Gy TBI (dose finding, FIG. 4C)", "value": 80, "unit": "%"}, {"measurement": "30-day survival rate", "setting": "Balb/c mice; 200 mg/kg oral, 5Gy TBI", "value": 100, "unit": "%"}, {"measurement": "30-day survival rate", "setting": "Balb/c mice; 200 mg/kg oral, 6Gy TBI", "value": 100, "unit": "%"}, {"measurement": "30-day survival rate", "setting": "Balb/c mice; 200 mg/kg oral, 8Gy TBI (FIG. 4D)", "value": 82, "unit": "%"}, {"measurement": "30-day survival rate", "setting": "Balb/c mice; 200 mg/kg oral, 9Gy TBI", "value": 18, "unit": "%"}, {"measurement": "30-day survival rate", "setting": "Balb/c mice; 200 mg/kg oral, 10Gy TBI", "value": 12, "unit": "%"}, {"measurement": "Dose reduction factor (DRF)", "setting": "Balb/c mice; 200 mg/kg oral, ratio of LD50/30, Balb/c mice", "value": 1.28}, {"measurement": "Effect of DMA by itself on rodents", "setting": "Balb/c mice; DMA only", "value": "no effect"}, {"measurement": "Body weight after TBI", "setting": "Balb/c mice; DMA pre-treated mice, after initial 9 days of radiation", "value": "considerable weight regain"}, {"measurement": "G2 check point", "setting": "HEK293 cells; HEK293, DMA 50 μM alone", "value": "no significant G2 check point"}, {"measurement": "G2-M progression", "setting": "HEK293 cells; HEK293, DMA+Radiation (5Gy), 18 h", "value": "significant G2-M delay"}]}]}
